Source: PubChem BioAssay (NCI)
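Briefly, cells in 96-well plates were exposed to five compound concentrations for 48 h, and endpoints were estimated by linear interpolation. TGI is the concentration that stops growth completely.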

System: 786-0 renal
Experiment: inhibition of tumour cell growth, NCI panel, 48 h

Compared with COc1ccc2c(c1)CCc1c-2[nH]c2ccc(OC)cc12, COc1cccc(CCn2c(N)c(-c3ccccc3)c3ccc([N+](=O)[O-])cc3c2=O)c1 is lower in TGI: > 100 µM for the first, 19.4 µM for the second.

C/C(=N\Nc1cc(CN2CCCC2)c(-c2ccc(Cl)cc2)nn1)C(=O)O and O=C(O)c1ccc(NNc2cc(=O)[nH]c(=O)[nH]2)cc1 cannot be ordered by TGI: > 100 µM for the first, > 100 µM for the second.

Cc1cccc(/C=N/NC(=S)NCCc2ccccn2)n1 and CC1(C)c2ccccc2C(=O)C12CCC(=O)CC2 cannot be ordered by TGI: > 100 µM for the first, > 100 µM for the second.

CC(=O)c1csc2c1C(=O)c1scc(C(C)=O)c1C2=O showed a TGI of 4.12 µM.

System: A498 renal
Experiment: inhibition of tumour cell growth, NCI panel, 48 h

First: COc1ccc2c(c1)CCc1c-2[nH]c2ccc(OC)cc12
Second: COc1cccc(CCn2c(N)c(-c3ccccc3)c3ccc([N+](=O)[O-])cc3c2=O)c1
The TGI of the first is higher: > 100 µM for the first, 5.34 µM for the second.

C/C(=N\Nc1cc(CN2CCCC2)c(-c2ccc(Cl)cc2)nn1)C(=O)O and O=C(O)c1ccc(NNc2cc(=O)[nH]c(=O)[nH]2)cc1 cannot be ordered by TGI: > 100 µM for the first, > 100 µM for the second.

Going from Cc1cccc(/C=N/NC(=S)NCCc2ccccn2)n1 to CC(=O)c1csc2c1C(=O)c1scc(C(C)=O)c1C2=O, the TGI falls from 87.5 µM to 2.93 µM (30-fold).

System: A549 NSCLC
Experiment: inhibition of tumour cell growth, NCI panel, 48 h

Compared with COc1ccc2c(c1)CCc1c-2[nH]c2ccc(OC)cc12, COc1cccc(CCn2c(N)c(-c3ccccc3)c3ccc([N+](=O)[O-])cc3c2=O)c1 is lower in TGI: > 100 µM for the first, 42 µM for the second.

C/C(=N\Nc1cc(CN2CCCC2)c(-c2ccc(Cl)cc2)nn1)C(=O)O and O=C(O)c1ccc(NNc2cc(=O)[nH]c(=O)[nH]2)cc1 cannot be ordered by TGI: > 100 µM for the first, > 100 µM for the second.

Cc1cccc(/C=N/NC(=S)NCCc2ccccn2)n1 and CC1(C)c2ccccc2C(=O)C12CCC(=O)CC2 cannot be ordered by TGI: > 100 µM for the first, > 100 µM for the second.

CC(=O)c1csc2c1C(=O)c1scc(C(C)=O)c1C2=O was tested, and the TGI was 4.19 µM.

System: ACHN renal
Experiment: inhibition of tumour cell growth, NCI panel, 48 h

First: COc1ccc2c(c1)CCc1c-2[nH]c2ccc(OC)cc12
Second: COc1cccc(CCn2c(N)c(-c3ccccc3)c3ccc([N+](=O)[O-])cc3c2=O)c1
The TGI of the first is higher: > 100 µM for the first, 15 µM for the second.

C/C(=N\Nc1cc(CN2CCCC2)c(-c2ccc(Cl)cc2)nn1)C(=O)O and O=C(O)c1ccc(NNc2cc(=O)[nH]c(=O)[nH]2)cc1 cannot be ordered by TGI: > 100 µM for the first, > 100 µM for the second.

Cc1cccc(/C=N/NC(=S)NCCc2ccccn2)n1 and CC1(C)c2ccccc2C(=O)C12CCC(=O)CC2 cannot be ordered by TGI: > 74.5 µM for the first, > 100 µM for the second.

With CC(=O)c1csc2c1C(=O)c1scc(C(C)=O)c1C2=O the TGI was 3.24 µM.

System: BT-549 breast
Experiment: inhibition of tumour cell growth, NCI panel, 48 h

Compared with COc1ccc2c(c1)CCc1c-2[nH]c2ccc(OC)cc12, COc1cccc(CCn2c(N)c(-c3ccccc3)c3ccc([N+](=O)[O-])cc3c2=O)c1 is lower in TGI: > 100 µM for the first, 4.3 µM for the second.

C/C(=N\Nc1cc(CN2CCCC2)c(-c2ccc(Cl)cc2)nn1)C(=O)O and O=C(O)c1ccc(NNc2cc(=O)[nH]c(=O)[nH]2)cc1 cannot be ordered by TGI: > 100 µM for the first, > 100 µM for the second.

Cc1cccc(/C=N/NC(=S)NCCc2ccccn2)n1 and CC1(C)c2ccccc2C(=O)C12CCC(=O)CC2 cannot be ordered by TGI: > 100 µM for the first, > 100 µM for the second.

In the case of CC(=O)c1csc2c1C(=O)c1scc(C(C)=O)c1C2=O, the TGI is reported as 3.18 µM.

System: CAKI-1 renal
Experiment: inhibition of tumour cell growth, NCI panel, 48 h

Going from COc1ccc2c(c1)CCc1c-2[nH]c2ccc(OC)cc12 to COc1cccc(CCn2c(N)c(-c3ccccc3)c3ccc([N+](=O)[O-])cc3c2=O)c1, the TGI falls from > 100 µM to 16.7 µM.

C/C(=N\Nc1cc(CN2CCCC2)c(-c2ccc(Cl)cc2)nn1)C(=O)O and Cc1cccc(/C=N/NC(=S)NCCc2ccccn2)n1 cannot be ordered by TGI: > 100 µM for the first, > 100 µM for the second.

Compared with CC(=O)c1csc2c1C(=O)c1scc(C(C)=O)c1C2=O, CC1(C)c2ccccc2C(=O)C12CCC(=O)CC2 is higher in TGI: 4.1 µM for the first, > 100 µM for the second.

System: CCRF-CEM leukemia
Experiment: inhibition of tumour cell growth, NCI panel, 48 h

Compared with COc1ccc2c(c1)CCc1c-2[nH]c2ccc(OC)cc12, COc1cccc(CCn2c(N)c(-c3ccccc3)c3ccc([N+](=O)[O-])cc3c2=O)c1 is 2.3-fold lower in TGI: 97.7 µM for the first, 43 µM for the second.

C/C(=N\Nc1cc(CN2CCCC2)c(-c2ccc(Cl)cc2)nn1)C(=O)O and O=C(O)c1ccc(NNc2cc(=O)[nH]c(=O)[nH]2)cc1 cannot be ordered by TGI: > 100 µM for the first, > 100 µM for the second.

Cc1cccc(/C=N/NC(=S)NCCc2ccccn2)n1 and CC1(C)c2ccccc2C(=O)C12CCC(=O)CC2 cannot be ordered by TGI: > 72.9 µM for the first, > 100 µM for the second.

In the case of CC(=O)c1csc2c1C(=O)c1scc(C(C)=O)c1C2=O, the TGI is reported as 1.82 µM.

System: COLO 205 colon
Experiment: inhibition of tumour cell growth, NCI panel, 48 h

Going from COc1ccc2c(c1)CCc1c-2[nH]c2ccc(OC)cc12 to COc1cccc(CCn2c(N)c(-c3ccccc3)c3ccc([N+](=O)[O-])cc3c2=O)c1, the TGI falls from > 100 µM to 5.93 µM.

C/C(=N\Nc1cc(CN2CCCC2)c(-c2ccc(Cl)cc2)nn1)C(=O)O and O=C(O)c1ccc(NNc2cc(=O)[nH]c(=O)[nH]2)cc1 cannot be ordered by TGI: > 100 µM for the first, > 100 µM for the second.

Cc1cccc(/C=N/NC(=S)NCCc2ccccn2)n1 and CC1(C)c2ccccc2C(=O)C12CCC(=O)CC2 cannot be ordered by TGI: > 100 µM for the first, > 100 µM for the second.

For CC(=O)c1csc2c1C(=O)c1scc(C(C)=O)c1C2=O, the TGI was 3.63 µM.

System: DU-145 prostate
Experiment: inhibition of tumour cell growth, NCI panel, 48 h

First: COc1ccc2c(c1)CCc1c-2[nH]c2ccc(OC)cc12
Second: COc1cccc(CCn2c(N)c(-c3ccccc3)c3ccc([N+](=O)[O-])cc3c2=O)c1
The TGI of the first is higher: > 100 µM for the first, 31.6 µM for the second.

C/C(=N\Nc1cc(CN2CCCC2)c(-c2ccc(Cl)cc2)nn1)C(=O)O and O=C(O)c1ccc(NNc2cc(=O)[nH]c(=O)[nH]2)cc1 cannot be ordered by TGI: > 100 µM for the first, > 100 µM for the second.

Cc1cccc(/C=N/NC(=S)NCCc2ccccn2)n1 and CC1(C)c2ccccc2C(=O)C12CCC(=O)CC2 cannot be ordered by TGI: > 86.3 µM for the first, > 100 µM for the second.

In the case of CC(=O)c1csc2c1C(=O)c1scc(C(C)=O)c1C2=O, the TGI is reported as 3.34 µM.

System: EKVX NSCLC
Experiment: inhibition of tumour cell growth, NCI panel, 48 h

Compared with COc1ccc2c(c1)CCc1c-2[nH]c2ccc(OC)cc12, COc1cccc(CCn2c(N)c(-c3ccccc3)c3ccc([N+](=O)[O-])cc3c2=O)c1 is lower in TGI: > 100 µM for the first, 24.8 µM for the second.

C/C(=N\Nc1cc(CN2CCCC2)c(-c2ccc(Cl)cc2)nn1)C(=O)O and O=C(O)c1ccc(NNc2cc(=O)[nH]c(=O)[nH]2)cc1 cannot be ordered by TGI: > 100 µM for the first, > 100 µM for the second.

Cc1cccc(/C=N/NC(=S)NCCc2ccccn2)n1 and CC1(C)c2ccccc2C(=O)C12CCC(=O)CC2 cannot be ordered by TGI: > 100 µM for the first, > 100 µM for the second.

Compound CC(=O)c1csc2c1C(=O)c1scc(C(C)=O)c1C2=O has a TGI of 3.36 µM.

System: HCC-2998 colon
Experiment: inhibition of tumour cell growth, NCI panel, 48 h

Compared with COc1ccc2c(c1)CCc1c-2[nH]c2ccc(OC)cc12, COc1cccc(CCn2c(N)c(-c3ccccc3)c3ccc([N+](=O)[O-])cc3c2=O)c1 is lower in TGI: > 100 µM for the first, 24.8 µM for the second.

O=C(O)c1ccc(NNc2cc(=O)[nH]c(=O)[nH]2)cc1 and Cc1cccc(/C=N/NC(=S)NCCc2ccccn2)n1 cannot be ordered by TGI: > 100 µM for the first, > 100 µM for the second.

For CC1(C)c2ccccc2C(=O)C12CCC(=O)CC2, the TGI was > 100 µM.

System: HCT-116 colon
Experiment: inhibition of tumour cell growth, NCI panel, 48 h

Going from COc1ccc2c(c1)CCc1c-2[nH]c2ccc(OC)cc12 to COc1cccc(CCn2c(N)c(-c3ccccc3)c3ccc([N+](=O)[O-])cc3c2=O)c1, the TGI falls from > 100 µM to 10 µM.

C/C(=N\Nc1cc(CN2CCCC2)c(-c2ccc(Cl)cc2)nn1)C(=O)O and O=C(O)c1ccc(NNc2cc(=O)[nH]c(=O)[nH]2)cc1 cannot be ordered by TGI: > 100 µM for the first, > 100 µM for the second.

Cc1cccc(/C=N/NC(=S)NCCc2ccccn2)n1 and CC1(C)c2ccccc2C(=O)C12CCC(=O)CC2 cannot be ordered by TGI: > 100 µM for the first, > 100 µM for the second.

CC(=O)c1csc2c1C(=O)c1scc(C(C)=O)c1C2=O was tested, and the TGI was 4.85 µM.

System: HCT-15 colon
Experiment: inhibition of tumour cell growth, NCI panel, 48 h

Compared with COc1ccc2c(c1)CCc1c-2[nH]c2ccc(OC)cc12, COc1cccc(CCn2c(N)c(-c3ccccc3)c3ccc([N+](=O)[O-])cc3c2=O)c1 is lower in TGI: > 100 µM for the first, 27.9 µM for the second.

C/C(=N\Nc1cc(CN2CCCC2)c(-c2ccc(Cl)cc2)nn1)C(=O)O and O=C(O)c1ccc(NNc2cc(=O)[nH]c(=O)[nH]2)cc1 cannot be ordered by TGI: > 100 µM for the first, > 100 µM for the second.

Cc1cccc(/C=N/NC(=S)NCCc2ccccn2)n1 and CC1(C)c2ccccc2C(=O)C12CCC(=O)CC2 cannot be ordered by TGI: > 100 µM for the first, > 100 µM for the second.

With CC(=O)c1csc2c1C(=O)c1scc(C(C)=O)c1C2=O the TGI was 3.2 µM.

System: HL-60(TB) leukemia
Experiment: inhibition of tumour cell growth, NCI panel, 48 h

C/C(=N\Nc1cc(CN2CCCC2)c(-c2ccc(Cl)cc2)nn1)C(=O)O and O=C(O)c1ccc(NNc2cc(=O)[nH]c(=O)[nH]2)cc1 cannot be ordered by TGI: > 100 µM for the first, > 100 µM for the second.

Going from Cc1cccc(/C=N/NC(=S)NCCc2ccccn2)n1 to COc1cccc(CCn2c(N)c(-c3ccccc3)c3ccc([N+](=O)[O-])cc3c2=O)c1, the TGI falls from 41.7 µM to 27.3 µM (1.5-fold).

Compared with CC(=O)c1csc2c1C(=O)c1scc(C(C)=O)c1C2=O, CC1(C)c2ccccc2C(=O)C12CCC(=O)CC2 is higher in TGI: 0.43 µM for the first, > 100 µM for the second.

System: HOP-62 NSCLC
Experiment: inhibition of tumour cell growth, NCI panel, 48 h

COc1ccc2c(c1)CCc1c-2[nH]c2ccc(OC)cc12 and O=C(O)c1ccc(NNc2cc(=O)[nH]c(=O)[nH]2)cc1 cannot be ordered by TGI: > 100 µM for the first, > 100 µM for the second.

C/C(=N\Nc1cc(CN2CCCC2)c(-c2ccc(Cl)cc2)nn1)C(=O)O and Cc1cccc(/C=N/NC(=S)NCCc2ccccn2)n1 cannot be ordered by TGI: > 100 µM for the first, > 75.1 µM for the second.

With CC(=O)c1csc2c1C(=O)c1scc(C(C)=O)c1C2=O the TGI was 3.43 µM.
